ChEMBL document CHEMBL5120881, “Silencing Tautomerization to Isolate Unstable Physalins from Physalis minima” (J Nat Prod, 2022)

How the values were obtained:
A549 = assay: Antiproliferative activity against human A549 cells assessed as reduction in cell viability incubated for 48 hrs by CCK8 assay; assay type: functional, cell-based; conditions: A549, 48 h
HepG2 = assay: Antiproliferative activity against human HepG2 cells assessed as reduction in cell viability incubated for 48 hrs by CCK8 assay; assay type: functional, cell-based; conditions: HepG2, 48 h
MCF7 = assay: Antiproliferative activity against human MCF7 cells assessed as reduction in cell viability incubated for 48 hrs by CCK8 assay; assay type: functional, cell-based; conditions: MCF7, 48 h
SGC-7901 = assay: Antiproliferative activity against human SGC-7901 cells assessed as reduction in cell viability incubated for 48 hrs by CCK8 assay; assay type: functional, cell-based; conditions: SGC-7901, 48 h
[1] = Cytotoxicity against mouse RAW264.7 cells assessed as cell viability at 10 uM incubated for 48 hrs by CCK8 assay; assay type: toxicity, cell-based; conditions: read-out: Activity
[2] = Cytotoxicity against human L02 cells assessed as cell viability at 10 uM incubated for 48 hrs by CCK8 assay; assay type: toxicity, cell-based; conditions: read-out: Activity
RAW264.7 = assay: Antiinflammatory activity in mouse RAW264.7 assessed as inhibition of LPS-stimulated NO production pretreated with LPS followed by compund addition by Griess reagent based microplate reader assay; assay type: functional, cell-based

## C=C1C(=O)O[C@@H]2C[C@@]1(C)[C@@H]1C(=O)[C@@]3(O)O[C@]14[C@@]2(C)OC(=O)[C@@]4(O)CC[C@H]1[C@H]3CC=C2CC=CC(=O)[C@@]21C
A549
  IC50: 8.9 µM
HepG2
  IC50: 13.2 µM
MCF7
  IC50: 7.6 µM
SGC-7901
  IC50: 2.8 µM
[1]
  viability at 48 h, 10 µM: 90.7%
[2]
  viability at 48 h, 10 µM: 94.2%
RAW264.7
  inhibition (INH): <50%

## C[C@@]12C[C@H]3OC(=O)[C@@H]1CO[C@@]14O[C@@]5([C@H]2C1=O)[C@@]3(C)OC(=O)[C@@]5(O)CC[C@H]1[C@H]4C[C@@H](O)[C@@]2(Cl)CC=CC(=O)[C@]12C
A549
  IC50: 21.7 µM
HepG2
  IC50: 24.7 µM
MCF7
  IC50: 12.5 µM
SGC-7901
  IC50: 12.7 µM
[1]
  viability at 48 h, 10 µM: 98.3%
[2]
  viability at 48 h, 10 µM: 95.3%
RAW264.7
  inhibition (INH): <50%

## C=C1C(=O)O[C@@H]2C[C@@]1(C)[C@@H]1C(=O)[C@@]3(O)O[C@]14[C@@]2(C)OC(=O)[C@@]4(O)CC[C@H]1[C@H]3CC=C2C=CCC(=O)[C@@]21C
A549
  IC50: 4.2 µM
HepG2
  IC50: 9.4 µM
MCF7
  IC50: 1.2 µM
SGC-7901
  IC50: 9.1 µM
[1]
  viability at 48 h, 10 µM: 91.4%
[2]
  viability at 48 h, 10 µM: 95.4%
RAW264.7
  inhibition (INH): <50%

## C=C1C(=O)O[C@@H]2C[C@@]1(C)[C@@H]1C(=O)[C@@]3(O)O[C@]14[C@@]2(C)OC(=O)[C@@]4(O)CC[C@H]1[C@H]3C[C@H]2O[C@]23CC=CC(=O)[C@]13C
A549
  IC50: 0.2 µM
HepG2
  IC50: 1.3 µM
MCF7
  IC50: 0.9 µM
SGC-7901
  IC50: 0.3 µM
[1]
  viability at 48 h, 10 µM: 85.2%
[2]
  viability at 48 h, 10 µM: 90.2%
RAW264.7
  inhibition (INH): <50%

## C=C1C(=O)O[C@@H]2C[C@@]1(C)[C@@H]1C(=O)[C@@]3(O)O[C@]14[C@@]2(C)OC(=O)[C@@]4(O)CC[C@H]1[C@H]3C[C@@H](O)[C@@]2(O)CC=CC(=O)[C@]12C
A549
  IC50: 5.4 µM
HepG2
  IC50: 9.8 µM
MCF7
  IC50: 7.3 µM
SGC-7901
  IC50: 12.4 µM
[1]
  viability at 48 h, 10 µM: 93.5%
[2]
  viability at 48 h, 10 µM: 97.5%
RAW264.7
  inhibition (INH): <50%

## C=C1C(=O)O[C@@H]2C[C@@]1(C)[C@@H]1C(=O)[C@@]3(O)O[C@]14[C@@]2(C)OC(=O)[C@@]4(O)CC[C@H]1[C@H]3C[C@@H](O)[C@@]2(OC)CC=CC(=O)[C@]12C
A549
  IC50: 11.4 µM
HepG2
  IC50: 14 µM
MCF7
  IC50: 10.6 µM
SGC-7901
  IC50: 7.8 µM
[1]
  viability at 48 h, 10 µM: 94.2%
[2]
  viability at 48 h, 10 µM: 98.1%
RAW264.7; Mus musculus, RAW264.7
  IC50: 25.6 µM

## C=C1C(=O)O[C@@H]2C[C@@]1(C)[C@@H]1C(=O)[C@@]3(O)O[C@]14[C@@]2(C)OC(=O)[C@@]4(O)CC[C@H]1[C@H]3C[C@@H](O)C2=CC=CC(=O)[C@@]21C
A549
  IC50: 7 µM
HepG2
  IC50: 8.3 µM
MCF7
  IC50: 12.5 µM
SGC-7901
  IC50: 9.8 µM
[1]
  viability at 48 h, 10 µM: 92.3%
[2]
  viability at 48 h, 10 µM: 95.2%
RAW264.7
  inhibition (INH): <50%

## C[C@]12C(=O)CC=CC1=CC[C@@H]1[C@@H]2CC[C@]2(O)C(=O)O[C@@]3(C)[C@H]4C[C@]5(C)[C@@H](CO[C@]16O[C@@]32[C@H]5C6=O)C(=O)O4
A549
  IC50: 4.3 µM
HepG2
  IC50: 9.8 µM
MCF7
  IC50: 2.5 µM
SGC-7901
  IC50: 8.9 µM
[1]
  viability at 48 h, 10 µM: 94.2%
[2]
  viability at 48 h, 10 µM: 92.5%
RAW264.7
  inhibition (INH): <50%

## C[C@]12C(=O)C=CCC1=CC[C@@H]1[C@@H]2CC[C@]2(O)C(=O)O[C@@]3(C)[C@H]4C[C@]5(C)[C@@H](CO[C@@]16O[C@@]32[C@H]5C6=O)C(=O)O4 [PHYSALIN B]
A549
  IC50: 11.9 µM
HepG2
  IC50: 11.7 µM
MCF7
  IC50: 11.2 µM
SGC-7901
  IC50: 12.1 µM
[1]
  viability at 48 h, 10 µM: 95.8%
[2]
  viability at 48 h, 10 µM: 97.8%
RAW264.7
  inhibition (INH): <50%
